Experimental data as given in US12617795B2, “Substituted 6,7-dihydro-5H-pyrrolo[3,4-d]pyrimidines, 5,7-dihydrofuro[3,4-d]pyrimidines, and pyrido[2,3-d]pyrimidines as KCC2 modulators” (Astrazeneca AB, priority 2020, dated 2026).

Target: T1, KCC2 (Homo sapiens, UniProt Q9H2X9)
T1 construct: expressed in transfected cells; host or cells: HEK293 cells electroporated (Maxcyte STX) with the pcDNA3.1 KCC2 plasmid
T1 sequence (Q9H2X9 1-1139): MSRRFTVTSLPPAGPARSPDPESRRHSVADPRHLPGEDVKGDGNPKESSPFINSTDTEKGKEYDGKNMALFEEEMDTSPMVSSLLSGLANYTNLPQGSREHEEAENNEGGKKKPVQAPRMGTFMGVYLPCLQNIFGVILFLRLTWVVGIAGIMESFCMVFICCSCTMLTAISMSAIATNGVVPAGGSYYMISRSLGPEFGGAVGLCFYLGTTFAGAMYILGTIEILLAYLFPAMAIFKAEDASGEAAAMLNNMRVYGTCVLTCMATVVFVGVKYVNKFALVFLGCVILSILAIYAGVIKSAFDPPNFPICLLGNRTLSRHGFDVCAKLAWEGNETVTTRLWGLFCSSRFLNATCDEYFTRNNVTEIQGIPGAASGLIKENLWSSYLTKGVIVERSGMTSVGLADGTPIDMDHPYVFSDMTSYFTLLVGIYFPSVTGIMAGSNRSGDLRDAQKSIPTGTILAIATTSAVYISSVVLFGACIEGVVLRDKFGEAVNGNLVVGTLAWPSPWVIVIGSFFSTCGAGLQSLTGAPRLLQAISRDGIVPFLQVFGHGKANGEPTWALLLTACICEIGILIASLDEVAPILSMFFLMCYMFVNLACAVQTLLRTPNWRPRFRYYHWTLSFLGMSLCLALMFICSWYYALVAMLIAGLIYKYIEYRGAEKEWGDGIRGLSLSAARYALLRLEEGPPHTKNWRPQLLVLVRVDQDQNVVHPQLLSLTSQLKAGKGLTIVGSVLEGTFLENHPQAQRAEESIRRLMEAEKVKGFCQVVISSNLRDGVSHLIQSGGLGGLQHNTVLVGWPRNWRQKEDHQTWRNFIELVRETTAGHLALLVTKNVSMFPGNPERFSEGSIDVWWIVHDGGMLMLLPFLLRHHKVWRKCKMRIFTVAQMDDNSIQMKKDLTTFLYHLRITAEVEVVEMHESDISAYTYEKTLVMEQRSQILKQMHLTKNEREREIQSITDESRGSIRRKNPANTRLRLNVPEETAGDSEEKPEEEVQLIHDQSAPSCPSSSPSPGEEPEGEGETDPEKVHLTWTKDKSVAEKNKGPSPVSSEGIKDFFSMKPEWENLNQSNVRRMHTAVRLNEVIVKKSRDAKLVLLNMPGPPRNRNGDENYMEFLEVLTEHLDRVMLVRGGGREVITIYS
Assay: KCC2 thallium transport FLIPR-based assay (Tl+ influx in HEK293 cells expressing KCC2)
Assay type: cell-based
Settings: 90 min compound incubation at RT, thallium flux at 120 s used to determine EC50
Summary of the method: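 Transient electroporation of codon-optimised human KCC2 into HEK293 cells, plated and cultured 48 h before dye loading (1 h, RT). Compounds run as a 12-point 1:2 series from 100 μM top, 90 min RT in buffer containing bumetanide; Tl+ flux read by FLIPR after stimulus addition, 1 s intervals over 120 s, with the 120 s signal used for EC50.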

Point of comparison: CC(C)N1Cc2c(Nc3ccc(C4CCCCC4)cc3)nc(N3CCOC(C4CC4)C3)nc2C1=O (single isomer, unassigned) [Example 14, 4-[(4-cyclohexylphenyl)amino]-2-(2-cyclopropylmorpholin-4-yl)-6-(propan-2-yl)-5,6-dihydro-7H-pyrrolo[3,4-d]pyrimidin-7-one], EC50 707 nM. Against it:
- C#CCCC1(CCOc2ccc(-c3ccc(Nc4nc(N5CCOC(C6CC6)C5)nc5c4CN(C(C)C)C5=O)cc3)cc2)N=N1 (stereo not shown) [Example 54, 4-[(4′-{2-[3-(but-3-yn-1-yl)-3H-diaziren-3-yl]ethoxy}[1,1′-biphenyl]-4-yl)amino]-2-(2-cyclopropyl-morpholin-4-yl)-6-(propan-2-yl)-5,6-dihydro-7H-pyrrolo[3,4-d]pyrimidin-7-one] — 2.8-fold lower, 253 nM
- C[C@@H]1CN(c2nc(Nc3ccc(C4CCCCC4)cc3)c3cc(C(N)=O)cnc3n2)CCO1 [Example 104, (R)-4-((4-cyclohexylphenyl)amino)-2-(2-methylmorpholino)pyrido[2,3-d]pyrimidine-6-carboxamide] — 2.3-fold higher, 1630 nM
- CC(C)N1Cc2c(Nc3ccc(-c4ccc(OCCNC(=O)OC(C)(C)C)cc4)cc3)nc(N3CCOCC3)nc2C1=O [Example 69, tert-Butyl (2-((4′-((6-isopropyl-2-morpholino-7-oxo-6,7-dihydro-5H-pyrrolo[3,4-d]pyrimidin-4-yl)amino)-[1,1′-biphenyl]-4-yl)oxy)ethyl)carbamate] — 2.2-fold higher, 1560 nM
- C[C@@H]1CN(c2nc(Nc3ccc(C4CCCCC4)cc3)c3cc(C#N)cnc3n2)CCO1 [Example 101, (R)-4-((4-cyclohexylphenyl)amino)-2-(2-methylmorpholino)pyrido[2,3-d]pyrimidine-6-carbonitrile] — within 1.5-fold, 1010 nM
- CC(C)c1ccc(Nc2nc(C3=CCOCC3)nc3c2CN(C(C)C)C3=O)cc1 [Example 50, 2-(3,6-dihydro-2H-pyran-4-yl)-6-(propan-2-yl)-4-{[4-(propan-2-yl)phenyl]amino}-5,6-dihydro-7H-pyrrolo[3,4-d]pyrimidin-7-one] — 11-fold higher, 7980 nM
- CCOCCN(C)c1nc(Nc2ccc(C3CCCCC3)cc2)c2c(n1)C(=O)N(C(C)C)C2 [Example 20, 4-[(4-cyclohexylphenyl)amino]-2-[(2-ethoxyethyl)(methyl)amino]-6-(propan-2-yl)-5,6-dihydro-7H-pyrrolo[3,4-d]pyrimidin-7-one] — 3.3-fold higher, 2350 nM
- CN(C)C(=O)CN1Cc2nc(C3=CCOCC3)nc(Nc3ccc(C4CCCCC4)cc3)c2C1 [Example 111, 2-{4-[(4-cyclohexylphenyl)amino]-2-(3,6-dihydro-2H-pyran-4-yl)-5,7-dihydro-6H-pyrrolo[3,4-d]pyrimidin-6-yl}-N,N-dimethylacetamide] — 7.6-fold higher, 5350 nM
- CC(C)N1Cc2c(Nc3ccc(OC4CCCC4)cc3)nc(N3CCO[C@H](C)C3)nc2C1=O [Example 64, 4-{[4-(cyclopentyloxy)phenyl]amino}-2-[(2R)-2-methylmorpholin-4-yl]-6-(propan-2-yl)-5,6-dihydro-7H-pyrrolo[3,4-d]pyrimidin-7-one] — 8.1-fold higher, 5760 nM
- COc1cc(-c2nc(Nc3ccc(C4CCCCC4)cc3)c3c(n2)C(=O)N(C(C)C)C3)ccn1 [Example 43, 4-[(4-cyclohexylphenyl)amino]-2-(2-methoxypyridin-4-yl)-6-(propan-2-yl)-5,6-dihydro-7H-pyrrolo[3,4-d]pyrimidin-7-one] — within 1.5-fold, 738 nM
- C1=C(c2nc3c(c(Nc4ccc(C5CCC5)cc4)n2)COC3)CCOC1 [Example 91, N-(4-cyclobutylphenyl)-2-(3,6-dihydro-2H-pyran-4-yl)-5,7-dihydrofuro[3,4-d]pyrimidin-4-amine] — 14-fold higher, 9920 nM
- CC(C)N1Cc2c(Nc3ccc(C4CCCCC4)cc3)nc(-c3cnco3)nc2C1=O [Example 48, 4-[(4-cyclohexylphenyl)amino]-2-(1,3-oxazol-5-yl)-6-(propan-2-yl)-5,6-dihydro-7H-pyrrolo[3,4-d]pyrimidin-7-one] — 8.9-fold higher, 6300 nM
- CC(C)N1Cc2c(Nc3ccc(C4CCCCC4)cc3)nc(N3CCOC(CO)C3)nc2C1=O (stereo not shown) [Example 31, 4-[(4-cyclohexylphenyl)amino]-2-[2-(hydroxymethyl)morpholin-4-yl]-6-(propan-2-yl)-5,6-dihydro-7H-pyrrolo[3,4-d]pyrimidin-7-one] — 6.8-fold higher, 4810 nM
- CC(C)N1Cc2c(Nc3ccc(-c4ccc(Cl)c(Cl)c4)cc3)nc(N3CCOCC3)nc2C1=O [Example 85, 4-[(3′,4′-dichloro[1,1′-biphenyl]-4-yl)amino]-2-(morpholin-4-yl)-6-(propan-2-yl)-5,6-dihydro-7H-pyrrolo[3,4-d]pyrimidin-7-one] — 12-fold higher, 8410 nM
- CC(C)N1Cc2c(Nc3ccc(C4CCCCC4)cc3)nc(N3CCOC(C4CC4)C3)nc2C1=O (stereo not shown) [Example 2, 4-((4-cyclohexylphenyl)amino)-2-(2-cyclopropylmorpholino)-6-isopropyl-5,6-dihydro-7H-pyrrolo[3,4-d]pyrimidin-7-one] — within 1.5-fold, 672 nM
- COC(=O)c1cnc2nc(N3CCO[C@H](C)C3)nc(Nc3ccc(C4CCCCC4)cc3)c2c1 [Example 102, methyl (R)-4-((4-cyclohexylphenyl)amino)-2-(2-methylmorpholino) pyrido[2,3-d]pyrimidine-6-carboxylate] — within 1.5-fold, 700 nM
- CC(=O)NCCC1CN(c2nc(Nc3ccc(C4CCCCC4)cc3)c3c(n2)C(=O)N(C(C)C)C3)CCO1 (stereo not shown) [Example 39, N-[2-(4-{4-[(4-cyclohexylphenyl)amino]-7-oxo-6-(propan-2-yl)-6,7-dihydro-5H-pyrrolo[3,4-d]pyrimidin-2-yl}morpholin-2-yl)ethyl]acetamide] — 14-fold higher, 9900 nM
- CC(C)N1Cc2c(Nc3ccc(C4CCCCC4)cc3)nc(N3CCOCC3CO)nc2C1=O (stereo not shown) [Example 32, 4-[(4-cyclohexylphenyl)amino]-2-[3-(hydroxymethyl)morpholin-4-yl]-6-(propan-2-yl)-5,6-dihydro-7H-pyrrolo[3,4-d]pyrimidin-7-one] — 6.9-fold higher, 4890 nM
- CC(C)N1Cc2nc(N3CCOCC3)nc(Nc3ccc(C4CCCCC4)cc3)c2C1 [Example 109, N-(4-cyclohexylphenyl)-6-isopropyl-2-morpholino-6,7-dihydro-5H-pyrrolo[3,4-d]pyrimidin-4-amine] — 9-fold higher, 6340 nM
- CC(C)N1Cc2c(Nc3ccc(C4CCCCC4)cc3)nc(N(C)Cc3ccon3)nc2C1=O [Example 22, 4-[(4-cyclohexylphenyl)amino]-2-{methyl[(1,2-oxazol-3-yl)methyl]amino}-6-(propan-2-yl)-5,6-dihydro-7H-pyrrolo[3,4-d]pyrimidin-7-one] — 3.9-fold higher, 2790 nM
- CC(C)N1Cc2c(Nc3ccc(C4CCCCC4)cc3)nc(N3CCOC(CC(F)(F)F)C3)nc2C1=O (stereo not shown) [Example 16, 4-[(4-cyclohexylphenyl)amino]-6-(propan-2-yl)-2-[2-(2,2,2-trifluoroethyl)morpholin-4-yl]-5,6-dihydro-7H-pyrrolo[3,4-d]pyrimidin-7-one] — within 1.5-fold, 749 nM
- CC(C)Oc1ccc(Nc2nc(N3CCOC(C4CC4)C3)nc3c2CN(C(C)C)C3=O)cc1 (stereo not shown) [Example 62, 2-(2-cyclopropylmorpholin-4-yl)-6-(propan-2-yl)-4-({4-[(propan-2-yl)oxy]phenyl}amino)-5,6-dihydro-7H-pyrrolo[3,4-d]pyrimidin-7-one] — 8-fold higher, 5660 nM
- COC1CCN(c2nc(Nc3ccc(C4CCCCC4)cc3)c3c(n2)C(=O)N(C(C)C)C3)C1 (stereo not shown) [Example 26, 4-[(4-cyclohexylphenyl)amino]-2-(3-methoxypyrrolidin-1-yl)-6-(propan-2-yl)-5,6-dihydro-7H-pyrrolo[3,4-d]pyrimidin-7-one] — 5-fold higher, 3500 nM
- CC(C)N1Cc2c(Nc3ccc(-c4ccccc4)c(F)c3)nc(C3=CCOCC3)nc2C1=O [Example 82, 2-(3,6-dihydro-2H-pyran-4-yl)-4-((2-fluoro-[1,1′-biphenyl]-4-yl)amino)-6-isopropyl-5,6-dihydro-7H-pyrrolo[3,4-d]pyrimidin-7-one] — 3.2-fold higher, 2290 nM
- CC(C)N1Cc2c(Nc3ccc(C4CCCCC4)cc3)nc(C3=CCOCC3)nc2C1=O [Example 45, 4-[(4-cyclohexylphenyl)amino]-2-(3,6-dihydro-2H-pyran-4-yl)-6-(propan-2-yl)-5,6-dihydro-7H-pyrrolo[3,4-d]pyrimidin-7-one] — 1.6-fold higher, 1150 nM
